Data from ChEMBL document CHEMBL4145514, “Unexplored antifungal activity of linear battacin lipopeptides against planktonic and mature biofilms of C. albicans” (Eur J Med Chem, 2018).
Converted amounts (≈) assume the structure as drawn. The source made the active and inactive calls. No cut-off for these calls is given here. Bridge positions count the residues as written; N and C are the ends. Square brackets hold non-standard residues; d marks the D form. Peptide text beside a SMILES is read from it. * marks the point of attachment. ξ: configuration not given here. Hexanoyl(4ξ-Me) = CCC(C)CCC(=O)*; Myristoyl = CCCCCCCCCCCCCC(=O)*; X3 = CC[C@H](C)CCCCC(=O)*; dDab = NCC[C@@H](N)C(=O)O; Dab = NCC[C@H](N)C(=O)O

Assays:
[1] = test system: Candida albicans; assay: Antifungal activity against Candida albicans SC5314 after 48 hrs; type: functional; settings: SC5314, 48 h
[2] = test system: Candida albicans; assay: Synergistic antifungal activity against Candida albicans SC5314 after 48 hrs in presence of 400 nmol AmB; type: functional; settings: SC5314, 48 h
[3] = test system: Candida albicans; assay: Synergistic antifungal activity against Candida albicans SC5314 assessed as FIC index after 48 hrs in presence of 400 nmol AmB; type: functional
[4] = test system: Candida albicans; assay: Synergistic antifungal activity against Candida albicans SC5314 after 48 hrs in presence of 800 nmol AmB; type: functional; settings: SC5314, 48 h
[5] = test system: Candida albicans; assay: Synergistic antifungal activity against Candida albicans SC5314 assessed as FIC index after 48 hrs in presence of 800 nmol AmB; type: functional
[6] = test system: Candida albicans; assay: Ratio of MIC for Candida albicans SC5314 to MIC for Candida albicans SC5314 in presence of 400 nmol AmB; type: functional
[7] = test system: Candida albicans; assay: Ratio of MIC for Candida albicans SC5314 to MIC for Candida albicans SC5314 in presence of 800 nmol AmB; type: functional
[8] = test system: Lipid bilayer; assay: Disruption of phosphatidylcholine/ phosphatidylinositol/phosphatidylethanolamine membrane at 200 uM by colorimetric assay

Row | Compound | MIC [1] | Activity [8] | further results
1 | CCC(C)CCC(=O)N[C@H](CCN)C(=O)N[C@@H](CCN)C(=O)N[C@@H](CC(C)C)C(=O)N[C@H](Cc1ccccc1)C(=O)N[C@@H](CCN)C(N)=O (stereo partly drawn) ({Hexanoyl(4ξ-Me)}-[dDab][Dab]L[dF][Dab]-NH2) | > 100 µM |  | 
2 | CC(=O)N[C@H](CCN)C(=O)N[C@@H](CCN)C(=O)N[C@@H](CCN)C(=O)N[C@@H](CC(C)C)C(=O)N[C@H](Cc1ccccc1)C(=O)N[C@@H](CCN)C(=O)N[C@@H](CCN)C(=O)N[C@@H](CC(C)C)C(N)=O | > 100 µM | inactive | 
3 | CC(C)C[C@H](NC(=O)[C@H](CCN)NC(=O)[C@H](CCN)NC(=O)[C@@H](Cc1ccccc1)NC(=O)[C@H](CC(C)C)NC(=O)[C@H](CCN)NC(=O)[C@H](CCN)NC(=O)[C@H](N)CCN)C(N)=O (H-[dDab][Dab][Dab]L[dF][Dab][Dab]L-NH2) | > 100 µM |  | 
4 | CC[C@H](C)CCCCC(=O)N[C@@H](CCN)C(=O)N[C@H](C(=O)N[C@@H](CCN)C(=O)N[C@H]1CCNC(=O)[C@H]([C@@H](C)O)NC(=O)[C@H](CCN)NC(=O)[C@H](CCN)NC(=O)[C@H](CC(C)C)NC(=O)[C@@H](Cc2ccccc2)NC(=O)[C@H](CCN)NC1=O)[C@@H](C)O (X3-[Dab]T[Dab][Dab][Dab][dF]L[Dab][Dab]T; lactam 4-C) | > 100 µM |  | 
5 | CCC(=O)N[C@H](CCN)C(=O)N[C@@H](CCN)C(=O)N[C@@H](CCN)C(=O)N[C@@H](CC(C)C)C(=O)N[C@H](Cc1ccccc1)C(=O)N[C@@H](CCN)C(=O)N[C@@H](CCN)C(=O)N[C@@H](CC(C)C)C(N)=O | > 100 µM | inactive | 

Now from value to molecule, other results behind:

Row | MIC [1] | Activity [8] | Compound | further results
6 | 12.5 µM (≈ 23.5 µg/mL) |  | CCC(C)CCC(=O)N[C@H](CCN)C(=O)N[C@@H](CCN)C(=O)N[C@@H](CCN)C(=O)N[C@@H](CC(C)C)C(=O)N[C@H](Cc1ccccc1)C(=O)N[C@@H](CCN)C(=O)N[C@@H](CCN)C(=O)N[C@@H](CC(C)C)C(=O)N[C@H](CCN)C(=O)N[C@@H](CCN)C(=O)N[C@@H](CCN)C(=O)N[C@@H](CC(C)C)C(=O)N[C@H](Cc1ccccc1)C(=O)N[C@@H](CCN)C(=O)N[C@@H](CCN)C(=O)N[C@@H](CC(C)C)C(N)=O (stereo partly drawn) | MIC [2]: 3.12 µM; fractional inhibitory concentration index (FICI) [3]: 2.24; MIC [4]: 1.56 µM; fractional inhibitory concentration index (FICI) [5]: 1.12; Ratio [6]: 4; Ratio [7]: 8 - 32
7 | > 100 µM | inactive | CCCC(=O)N[C@H](CCN)C(=O)N[C@@H](CCN)C(=O)N[C@@H](CCN)C(=O)N[C@@H](CC(C)C)C(=O)N[C@H](Cc1ccccc1)C(=O)N[C@@H](CCN)C(=O)N[C@@H](CCN)C(=O)N[C@@H](CC(C)C)C(N)=O | 
8 | 12.5 µM (≈ 13.8 µg/mL) |  | CCCCCCCCCCCCCC(=O)N[C@H](CCN)C(=O)N[C@@H](CCN)C(=O)N[C@@H](CCN)C(=O)N[C@@H](CC(C)C)C(=O)N[C@H](Cc1ccccc1)C(=O)N[C@@H](CCN)C(=O)N[C@@H](CCN)C(=O)N[C@@H](CC(C)C)C(N)=O (Myristoyl-[dDab][Dab][Dab]L[dF][Dab][Dab]L-NH2) | 
9 | 25 µM (≈ 26.1 µg/mL) |  | CCC(C)CCC(=O)N[C@H](CCN)C(=O)N[C@@H](CCN)C(=O)N[C@@H](CCN)C(=O)N[C@@H](CC(C)C)C(=O)N[C@H](Cc1c[nH]c2ccccc12)C(=O)N[C@@H](CCN)C(=O)N[C@@H](CCN)C(=O)N[C@@H](CC(C)C)C(N)=O (stereo partly drawn) | 
